Common to all, as to format: cell-based
Test [1] concerns the target T1, Protein cereblon/Son of sevenless homolog 1 (Homo sapiens, UniProt Q07889+Q96SW2). Nature of the test: PROTAC activity at CRBN/SOS1 in human A549 cells assessed as protein degradation at 0.1 uM incubated for 24 hrs by immunoblot analysis relative to control. For orientation: In western blotting, separated proteins are transferred to a membrane and probed.
Test [2] concerns the target T1, Protein cereblon/Son of sevenless homolog 1. The experiment in a line: PROTAC activity at CRBN/SOS1 in human A549 cells assessed as protein degradation at 1 uM incubated for 24 hrs by immunoblot analysis relative to control.
Test [3] shares this target. The experiment in a line: PROTAC activity at CRBN/SOS1 in human A549 cells assessed as protein degradation at 10 uM incubated for 24 hrs by immunoblot analysis relative to control.
Test [4] shares this target. Nature of the test: PROTAC activity at CRBN/SOS1 in human A549 cells assessed as half life of SOS1 at 3 uM incubated for 24 hrs by immunoblot analysis.
For test [5] the target is unchanged. Nature of the test: PROTAC activity at CRBN/SOS1 in human A549 cells assessed as protein degradation at 10 uM incubated for 24 hrs by immunoblot analysis.

Calls of active or inactive are those of the source. The calls are words filed in the database; no cut-off is given here. Where only a bound is given, the exact number is not on record here.

T1 sequence (Q07889 whole entry, looked up): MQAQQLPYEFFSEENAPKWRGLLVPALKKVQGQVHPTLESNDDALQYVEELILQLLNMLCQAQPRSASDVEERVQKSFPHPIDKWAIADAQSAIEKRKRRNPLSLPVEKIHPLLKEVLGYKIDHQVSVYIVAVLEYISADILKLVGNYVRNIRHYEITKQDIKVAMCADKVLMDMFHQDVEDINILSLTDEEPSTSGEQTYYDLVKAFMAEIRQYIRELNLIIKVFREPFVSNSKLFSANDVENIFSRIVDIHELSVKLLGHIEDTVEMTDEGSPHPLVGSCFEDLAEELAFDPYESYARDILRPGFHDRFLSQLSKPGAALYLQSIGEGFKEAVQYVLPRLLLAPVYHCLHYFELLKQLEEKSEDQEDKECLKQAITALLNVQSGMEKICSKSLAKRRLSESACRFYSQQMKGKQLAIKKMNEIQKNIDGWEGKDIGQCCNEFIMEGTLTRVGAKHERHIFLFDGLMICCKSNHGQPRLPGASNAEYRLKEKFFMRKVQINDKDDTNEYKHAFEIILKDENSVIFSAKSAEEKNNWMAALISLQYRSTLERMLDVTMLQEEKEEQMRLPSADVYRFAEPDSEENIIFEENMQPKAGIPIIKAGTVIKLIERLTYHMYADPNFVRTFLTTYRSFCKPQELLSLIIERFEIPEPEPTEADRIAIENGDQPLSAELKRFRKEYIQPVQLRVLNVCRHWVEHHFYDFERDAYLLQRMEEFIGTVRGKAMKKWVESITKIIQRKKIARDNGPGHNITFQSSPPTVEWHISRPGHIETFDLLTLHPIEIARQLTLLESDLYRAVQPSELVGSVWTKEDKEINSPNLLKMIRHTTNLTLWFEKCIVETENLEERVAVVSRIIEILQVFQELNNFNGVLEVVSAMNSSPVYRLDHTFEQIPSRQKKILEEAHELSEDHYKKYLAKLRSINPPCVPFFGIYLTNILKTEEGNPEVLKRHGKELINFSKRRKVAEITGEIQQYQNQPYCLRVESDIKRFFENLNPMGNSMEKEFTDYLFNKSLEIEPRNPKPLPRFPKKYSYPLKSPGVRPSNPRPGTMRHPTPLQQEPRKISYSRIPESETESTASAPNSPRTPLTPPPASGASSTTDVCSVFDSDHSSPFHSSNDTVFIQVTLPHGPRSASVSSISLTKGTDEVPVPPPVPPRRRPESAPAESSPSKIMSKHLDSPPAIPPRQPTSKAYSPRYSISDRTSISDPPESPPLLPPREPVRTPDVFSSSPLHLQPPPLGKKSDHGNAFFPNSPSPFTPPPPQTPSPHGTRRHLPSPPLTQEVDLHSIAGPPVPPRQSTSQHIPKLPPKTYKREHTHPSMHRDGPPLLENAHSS
T1 sequence (Q96SW2 whole entry, looked up): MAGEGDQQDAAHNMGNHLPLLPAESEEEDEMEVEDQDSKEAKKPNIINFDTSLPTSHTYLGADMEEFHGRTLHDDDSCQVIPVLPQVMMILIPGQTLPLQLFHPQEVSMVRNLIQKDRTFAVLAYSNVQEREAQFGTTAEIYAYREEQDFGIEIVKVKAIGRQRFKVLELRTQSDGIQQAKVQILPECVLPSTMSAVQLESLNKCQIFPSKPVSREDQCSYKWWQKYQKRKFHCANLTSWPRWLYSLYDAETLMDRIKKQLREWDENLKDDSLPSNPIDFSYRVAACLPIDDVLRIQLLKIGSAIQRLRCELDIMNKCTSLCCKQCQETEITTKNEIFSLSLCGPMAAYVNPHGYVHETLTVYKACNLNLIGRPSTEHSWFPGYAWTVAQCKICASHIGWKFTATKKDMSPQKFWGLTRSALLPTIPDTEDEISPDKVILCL

For `COc1cc2nc(C)nc(N[C@H](C)c3cc(N)cc(C(F)(F)F)c3)c2cc1O[C@H]1CCN(C(=O)CCCCCCCNc2ccc3c(c2)C(=O)N(C2CCC(=O)NC2=O)C3=O)C1` (some centres undefined), the Activity in test [1] stood at 6.6%; in test [2], 20.9%; in test [3], 42.9%.
As to `COc1cc2nc(C)nc(N[C@H](C)c3cc(N)cc(C(F)(F)F)c3)c2cc1O[C@H]1CCN(C(=O)CCCCCCCCC(=O)Nc2ccc3c(c2)C(=O)N(C2CCC(=O)NC2=O)C3)C1` (some centres undefined), the Activity in test [1] is 0%; in test [2], 2.5%; in test [3], 0.6%.
`COc1cc2nc(C)nc(N[C@H](C)c3cc(N)cc(C(F)(F)F)c3)c2cc1O[C@H]1CCN(C(=O)CC(=O)Nc2cccc3c2CN(C2CCC(=O)NC2=O)C3=O)C1` (some centres undefined): the figures for the Activity in test [1], in test [2] and in test [3] were 1%, 4.7% and 7%, respectively.
Taken in the same sequence, the figures for `COc1cc2nc(C)nc(N[C@H](C)c3cc(N)cc(C(F)(F)F)c3)c2cc1O[C@H]1CCN(C(=O)CCCCC(=O)Nc2cccc3c2CN(C2CCC(=O)NC2=O)C3=O)C1` (some centres undefined) were 1.8%, 0% and 0%.
Taken in the same sequence, the figures for `COc1cc2nc(C)nc(N[C@H](C)c3cc(N)cc(C(F)(F)F)c3)c2cc1O[C@H]1CCN(C(=O)CCCCCNc2cccc3c2C(=O)N(C2CCC(=O)NC2=O)C3=O)C1` (some centres undefined) were 14.3%, 5.7% and 6.7%.
Regarding `COc1cc2nc(C)nc(N[C@H](C)c3cc(N)cc(C(F)(F)F)c3)c2cc1O[C@H]1CCN(C(=O)CCCCCCCCCNc2ccc3c(c2)C(=O)N(C2CCC(=O)NC2=O)C3=O)C1` (some centres undefined), the Activity in test [1], in test [2] and in test [3] was 0% throughout.
Consider `COc1cc2nc(C)nc(N[C@H](C)c3cc(N)cc(C(F)(F)F)c3)c2cc1O[C@H]1CCN(C(=O)CCCCCCC(=O)Nc2ccc3c(c2)C(=O)N(C2CCC(=O)NC2=O)C3)C1` (some centres undefined), for which the Activity in test [1] is 7.9%; in test [2] it was 37.6%; in test [3], 8.2%.
In the case of `COc1cc2nc(C)nc(N[C@H](C)c3cc(N)cc(C(F)(F)F)c3)c2cc1O[C@H]1CCN(C(=O)CC(=O)Nc2ccc3c(c2)CN(C2CCC(=O)NC2=O)C3=O)C1` (some centres undefined), the Activity in test [1] was found to be 0%; in test [2], 4%; in test [3], 9.3%.
For `COc1cc2nc(C)nc(N[C@H](C)c3cc(N)cc(C(F)(F)F)c3)c2cc1O[C@H]1CCN(C(=O)CCCNc2cccc3c2C(=O)N(C2CCC(=O)NC2=O)C3=O)C1` (some centres undefined) the same measures were 0.9%, 0% and 8%.
For `COc1cc2nc(C)nc(N[C@H](C)c3cc(N)cc(C(F)(F)F)c3)c2cc1O[C@H]1CCN(C(=O)CCC(=O)Nc2ccc3c(c2)C(=O)N(C2CCC(=O)NC2=O)C3)C1` (some centres undefined) the same measures were 13.7%, 20% and 35.6%.
`COc1cc2nc(C)nc(N[C@H](C)c3cc(N)cc(C(F)(F)F)c3)c2cc1O[C@H]1CCN(C(=O)CCCCCCC(=O)Nc2cccc3c2C(=O)N(C2CCC(=O)NC2=O)C3)C1` (some centres undefined): the Activity in test [1] is 2.6%; in test [2], 0%; in test [3], 3.7%.
For the molecule `C[C@@H]1C[C@@H]([C@H](O)CC2CC(=O)NC(=O)C2)C(=O)[C@@H](C)C1`, the T1/2 in test [4] is > 24 h.
With `COc1cc2nc(C)nc(N[C@H](C)c3cc(N)cc(C(F)(F)F)c3)c2cc1O[C@H]1CCN(C(=O)CCC(=O)Nc2cccc3c2C(=O)N(C2CCC(=O)NC2=O)C3)C1` (some centres undefined), the values for the Activity in test [1], in test [2] and in test [3] were 0%, 9.6% and 0%, respectively.
Consider `COc1cc2nc(C)nc(N[C@H](C)c3cc(N)cc(C(F)(F)F)c3)c2cc1O[C@H]1CCN(C(=O)CCCCC(=O)Nc2ccc3c(c2)C(=O)N(C2CCC(=O)NC2=O)C3)C1` (some centres undefined), for which the Activity was 2.7% in test [1], 12.2% in test [2] and 37.6% in test [3].
For `COc1cc2nc(C)nc(N[C@H](C)c3cc(N)cc(C(F)(F)F)c3)c2cc1O[C@H]1CCN(C(=O)CCCCCNc2ccc3c(c2)C(=O)N(C2CCC(=O)NC2=O)C3=O)C1` (some centres undefined) the same measures were 5.6%, 11.9% and 19.3%.
Turning to `COc1cc2nc(C)nc(N[C@H](C)c3cc(N)cc(C(F)(F)F)c3)c2cc1O[C@H]1CCN(C(=O)CCCCCCC(=O)Nc2ccc3c(c2)CN(C2CCC(=O)NC2=O)C3=O)C1` (some centres undefined), the Activity came out at 3.9% in test [1], 57.7% in test [2] and 4.1% in test [3].
Regarding `COc1cc2nc(C)nc(N[C@H](C)c3cc(N)cc(C(F)(F)F)c3)c2cc1O[C@H]1CCN(C(=O)CCCNc2ccc3c(c2)C(=O)N(C2CCC(=O)NC2=O)C3=O)C1` (some centres undefined), the Activity in test [1] was 4%; in test [2], 8.9%; in test [3], 9.4%.
For `COc1cc2nc(C)nc(N[C@H](C)c3cc(N)cc(C(F)(F)F)c3)c2cc1O[C@H]1CCN(C(=O)CCCCCCC(=O)Nc2cccc3c2CN(C2CCC(=O)NC2=O)C3=O)C1` (some centres undefined) the same measures were 2.1%, 31.9% and 65.4%.
Taken in the same sequence, the figures for `COc1cc2nc(C)nc(N[C@H](C)c3cc(N)cc(C(F)(F)F)c3)c2cc1O[C@H]1CCN(C(=O)CCCCCCCCC(=O)Nc2cccc3c2CN(C2CCC(=O)NC2=O)C3=O)C1` (some centres undefined) were 11.4%, 39.1% and 26.1%.
For `COc1cc2nc(C)nc(N[C@H](C)c3cc(N)cc(C(F)(F)F)c3)c2cc1O[C@H]1CCN(C(=O)CC(=O)Nc2cccc3c2C(=O)N(C2CCC(=O)NC2=O)C3)C1` (some centres undefined) the same measures were 0%, 11.6% and 9.2%.
Turning to `COc1cc2nc(C)nc(N[C@H](C)c3cc(N)cc(C(F)(F)F)c3)c2cc1O[C@H]1CCN(C(=O)CNc2cccc3c2C(=O)N(C2CCC(=O)NC2=O)C3=O)C1` (some centres undefined), the values for the Activity in test [1], in test [2] and in test [3] were 1.7%, 2.6% and 0%, respectively.
For `COc1cc2nc(C)nc(N[C@H](C)c3cc(N)cc(C(F)(F)F)c3)c2cc1O[C@H]1CCN(C(=O)CC(=O)Nc2ccc3c(c2)C(=O)N(C2CCC(=O)NC2=O)C3)C1` (some centres undefined) the same measures were 8.5%, 6.1% and 7.5%.
Take `COc1cc2nc(C)nc(N[C@H](C)c3cc(N)cc(C(F)(F)F)c3)c2cc1O[C@H]1CCN(C(=O)CNc2ccc3c(c2)C(=O)N(C2CCC(=O)NC2=O)C3=O)C1` (some centres undefined): the results for the Activity in test [1], in test [2] and in test [3] were 0%, 0% and 1.5%, respectively.
Regarding `COc1cc2nc(C)nc(N[C@H](C)c3cc(N)cc(C(F)(F)F)c3)c2cc1O[C@H]1CCN(C(=O)CCC(=O)Nc2ccc3c(c2)CN(C2CCC(=O)NC2=O)C3=O)C1` (some centres undefined), the Activity was 0% in test [1], 0% in test [2] and 2.4% in test [3].
As to `COc1cc2nc(C)nc(N[C@H](C)c3cc(N)cc(C(F)(F)F)c3)c2cc1O[C@H]1CCN(C(=O)CCCCCCCC(=O)Nc2cccc3c2CN(C2CCC(=O)N(C)C2=O)C3=O)C1` (some centres undefined), the outcome in test [5] was inactive.
On to `COc1cc2nc(C)nc(N[C@H](C)c3cc(N)cc(C(F)(F)F)c3)c2cc1O[C@H]1CCN(C(=O)CCCCC(=O)Nc2ccc3c(c2)CN(C2CCC(=O)NC2=O)C3=O)C1` (some centres undefined), for which the Activity in test [1] was found to be 7.1%; in test [2], 10%; in test [3] it was 15.6%.
For the molecule `COc1cc2nc(C)nc(N[C@H](C)c3cc(N)cc(C(F)(F)F)c3)c2cc1O[C@H]1CCN(C(=O)CCCCCCCCC(=O)Nc2cccc3c2C(=O)N(C2CCC(=O)NC2=O)C3)C1` (some centres undefined), the Activity in test [1] was 6.4%; in test [2], 6.7%; in test [3] it was 18.1%.
Taken in the same sequence, the figures for `COc1cc2nc(C)nc(N[C@H](C)c3cc(N)cc(C(F)(F)F)c3)c2cc1O[C@H]1CCN(C(=O)CCCCCCCCC(=O)Nc2ccc3c(c2)CN(C2CCC(=O)NC2=O)C3=O)C1` (some centres undefined) were 0%, 9.5% and 9%.
Consider `COc1cc2nc(C)nc(N[C@H](C)c3cc(N)cc(C(F)(F)F)c3)c2cc1O[C@H]1CCN(C(=O)CCCCCCCNc2cccc3c2C(=O)N(C2CCC(=O)NC2=O)C3=O)C1` (some centres undefined), for which the values for the Activity in test [1], in test [2] and in test [3] were 15.3%, 13% and 6.1%, respectively.
With `COc1cc2nc(C)nc(N[C@H](C)c3cc(N)cc(C(F)(F)F)c3)c2cc1O[C@H]1CCN(C(=O)CCCCCCCCCCC(=O)Nc2cccc3c2CN(C2CCC(=O)NC2=O)C3=O)C1` (some centres undefined), the Activity in test [1], in test [2] and in test [3] was 0% each time.
For the molecule `COc1cc2nc(C)nc(N[C@H](C)c3cc(N)cc(C(F)(F)F)c3)c2cc1O[C@H]1CCN(C(=O)CCCCC(=O)Nc2cccc3c2C(=O)N(C2CCC(=O)NC2=O)C3)C1` (some centres undefined), the Activity in test [1] is 5.6%; in test [2] it was 1.6%; in test [3], 10.2%.

The values above are taken from ChEMBL document CHEMBL5550100, “Discovery of LHF418 as a new potent SOS1 PROTAC degrader” (Bioorg Med Chem, 2024).
